Laboratory results from PubChem BioAssay AID264 (DTP/NCI, 2004).
Several values for one entry are separate records, joined by “and”; a condition that tells them apart may be missing. Equal entries are not always repeated. Results filed as inconclusive are left out.

Tested on: nude mice, LX-1 lung xenograft intrarenal, tumor weight T/C
Assay: NCI In Vivo Anticancer Drug Screen. Data for tumor model Human Lung LX-1 Xenograft (intrarenal inoculation) in NU/NU Swiss (nude) mice
Conditions: endpoint: mean tumor weight change, higher = larger tumour
Summary of the method: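 Activity was scored by measuring tumors in treated animals and in vehicle controls, then reporting the treated result as a fraction of the control result.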

[1] = dose: 300.0 mg/kg/injection, schedule: Q04DX003 (sc), vehicle: Klucel (hydroxypropylcellulose) (HPC)
[2] = dose: 600.0 mg/kg/injection, schedule: Q04DX003 (sc), vehicle: Klucel (hydroxypropylcellulose) (HPC)
[3] = dose: 1200.0 mg/kg/injection, schedule: Q04DX003 (sc), vehicle: Klucel (hydroxypropylcellulose) (HPC)
[4] = dose: 200.0 mg/kg/injection, schedule: Q04DX003 (sc), vehicle: saline with Tween-80
[5] = dose: 300.0 mg/kg/injection, schedule: Q04DX003 (sc), vehicle: saline with Tween-80
[6] = dose: 600.0 mg/kg/injection, schedule: Q04DX003 (sc), vehicle: saline with Tween-80
[7] = dose: 1200.0 mg/kg/injection, schedule: Q04DX003 (sc), vehicle: saline with Tween-80
[8] = dose: 100.0 mg/kg/injection, schedule: Q04DX003 (sc), vehicle: Klucel (hydroxypropylcellulose) (HPC)
[9] = dose: 150.0 mg/kg/injection, schedule: Q04DX003 (sc), vehicle: saline with Tween-80
[10] = dose: 200.0 mg/kg/injection, schedule: Q01DX010 (sc), vehicle: saline with Tween-80

CCSC(=O)N1c2ccc(OC)cc2C=CC1C#N (stereo not given) was tested, and the T/C (dose: 2400.0 mg/kg/injection, schedule: Q04DX003 (sc), vehicle: saline with Tween-80) was 32 % of control (2×) and 40 % of control and the T/C (dose: 4800.0 mg/kg/injection, schedule: Q04DX003 (sc), vehicle: saline with Tween-80) was 16 % of control and 17 % of control and 23 % of control.

With C[C@]12CCC(=O)C=C1CC[C@@H]1[C@@H]2C(=O)C[C@@]2(C)[C@H]1CC[C@]2(O)C(=O)CO the T/C [1] was 38 % of control, the T/C [2] was 34 % of control and the T/C [3] was 52 % of control.

For C=C(C)C(=NC(C)(C)C)Nc1ccccc1, the T/C (dose: 50.0 mg/kg/injection, schedule: Q04DX003 (sc), vehicle: saline with Tween-80) was 62 % of control and the T/C [4] was 34 % of control.

In the case of Cc1c2cc(Cl)c3ccccc3c2c[n+]2ccccc12, the T/C [5] is reported as 66 % of control, the T/C [6] is reported as 81 % of control and the T/C [7] is reported as 70 % of control.

For COC1(OC)C2C=CC1CC2, the T/C [5] was 105 % of control, the T/C [6] was 150 % of control and the T/C [7] was 104 % of control.

For O=S(=O)(O)O, the T/C (dose: 150.0 mg/kg/injection, schedule: Q04DX003 (sc), vehicle: Klucel (hydroxypropylcellulose) (HPC)) was 70 % of control, the T/C [1] was 167 % of control and the T/C [2] was 73 % of control.

COC1C(O)C(C)OC(OC2C(Oc3cccc4c(O)c5c(=O)oc6ccc(C)c7c(=O)oc(c34)c5c67)OC(C)C(O)C2O)C1O (stereo not given) was tested, and the T/C (dose: 50.0 mg/kg/injection, schedule: Q01DX010 (sc), vehicle: Klucel (hydroxypropylcellulose) (HPC)) was 84 % of control, the T/C (dose: 100.0 mg/kg/injection, schedule: Q01DX010 (sc), vehicle: Klucel (hydroxypropylcellulose) (HPC)) was 63 % of control and the T/C (dose: 200.0 mg/kg/injection, schedule: Q01DX010 (sc), vehicle: Klucel (hydroxypropylcellulose) (HPC)) was 54 % of control. For the same molecule, the T/C (dose: 400.0 mg/kg/injection, schedule: Q01DX010 (sc), vehicle: Klucel (hydroxypropylcellulose) (HPC)) was 58 % of control.

For CC(=O)C1=C(O)C2(O)C(=O)c3c(c(C)c4ccc(C)c(O)c4c3O)CC2C(N)C1=O (stereo not given), the T/C (dose: 50.0 mg/kg/injection, schedule: Q04DX003 (sc), vehicle: saline) was 107 % of control, the T/C (dose: 100.0 mg/kg/injection, schedule: Q04DX003 (sc), vehicle: saline) was 110 % of control and the T/C (dose: 200.0 mg/kg/injection, schedule: Q04DX003 (sc), vehicle: saline) was 61 % of control. For the same molecule, the T/C (dose: 400.0 mg/kg/injection, schedule: Q04DX003 (sc), vehicle: saline) was 51 % of control.

With CCN(CC)CCOC(=O)Cc1cccc2c(=O)cc(-c3ccccc3)oc12 the T/C (dose: 100.0 mg/kg/injection, schedule: Q04DX003 (sc), vehicle: saline with Tween-80) was 112 % of control and the T/C [4] was 44 % of control.

For Oc1ccc(CCl)c2cccnc12, the T/C (dose: 75.0 mg/kg/injection, schedule: Q04DX003 (sc), vehicle: saline) was 91 % of control, the T/C (dose: 150.0 mg/kg/injection, schedule: Q04DX003 (sc), vehicle: saline) was 78 % of control and the T/C (dose: 300.0 mg/kg/injection, schedule: Q04DX003 (sc), vehicle: saline) was 46 % of control.

In the case of CN(C1=NS(=O)(=O)N=C(N(C)c2ccccc2)O1)c1ccccc1, the T/C [1] is reported as 66 % of control, the T/C [2] is reported as 61 % of control and the T/C [3] is reported as 79 % of control. For the same molecule, the T/C (dose: 2400.0 mg/kg/injection, schedule: Q04DX003 (sc), vehicle: Klucel (hydroxypropylcellulose) (HPC)) was 91 % of control.

With NC(=O)c1[nH]nc(C2OC(CO)C(O)C2O)c1O (stereo not given) the T/C (dose: 0.62 mg/kg/injection, schedule: Q04DX003 (sc), vehicle: saline) was 77 % of control, the T/C (dose: 1.25 mg/kg/injection, schedule: Q04DX003 (sc), vehicle: saline) was 65 % of control and the T/C (dose: 2.5 mg/kg/injection, schedule: Q04DX003 (sc), vehicle: saline) was 109 % of control. For the same molecule, the T/C (dose: 5.0 mg/kg/injection, schedule: Q04DX003 (sc), vehicle: saline) was 78 % of control.

In the case of COC12C(COC(N)=O)C3=C(C(=O)C(C)=C(N)C3=O)N1CC1C2N1C (stereo not given), the T/C (dose: 8.0 mg/kg/injection, schedule: Q01DX010 (sc), vehicle: saline) is reported as 1 % of control and -17 % of control.

In the case of O=C(O)/C=C/C(=O)Nc1ccc(Cl)c(Cl)c1, the T/C [8] is reported as 95 % of control and the T/C (dose: 200.0 mg/kg/injection, schedule: Q04DX003 (sc), vehicle: Klucel (hydroxypropylcellulose) (HPC)) is reported as 91 % of control.

For COC(=O)C12OCC34C(CC5C(C)=CC(=O)C(O)C5(C)C3C(O)C1O)OC(=O)C(OC(=O)CC(C)C)C24 (stereo not given), the T/C (dose: 3.0 mg/kg/injection, schedule: Q04DX003 (sc), vehicle: saline + alcohol) was 48 % of control.

For CO[C@H]1Nc2c(ccc(C)c2O)C(=O)N2C=C(/C=C/C(N)=O)C[C@@H]12, the T/C (dose: 0.25 mg/kg/injection, schedule: Q04DX003 (sc), vehicle: saline + alcohol) was 48 % of control, the T/C (dose: 0.5 mg/kg/injection, schedule: Q04DX003 (sc), vehicle: saline + alcohol) was 75 % of control and the T/C (dose: 1.0 mg/kg/injection, schedule: Q04DX003 (sc), vehicle: saline + alcohol) was 115 % of control. The T/C (dose: 2.0 mg/kg/injection, schedule: Q04DX003 (sc), vehicle: saline + alcohol) was 39 % of control.

In the case of C=C(C)[C@]12CC(C)C34OC(/C=C\C=C\CCCCCCCCC)(O[C@@H]1[C@@H]3[C@@H]1O[C@]1(CO)[C@@H](O)[C@]1(O)C(=O)C(C)=C[C@@H]41)O2 (stereo not given in full), the T/C (dose: 3.0 mg/kg/injection, schedule: Q04DX003 (sc), vehicle: distilled water + alcohol) is reported as 84 % of control, the T/C (dose: 6.0 mg/kg/injection, schedule: Q04DX003 (sc), vehicle: distilled water + alcohol) is reported as 77 % of control and the T/C (dose: 12.0 mg/kg/injection, schedule: Q04DX003 (sc), vehicle: distilled water + alcohol) is reported as 81 % of control.

With [I][Hg][CH2]C1COC([CH2][Hg][I])CO1 (stereo not given) the T/C [9] was 105 % of control, the T/C [5] was 97 % of control and the T/C [6] was 80 % of control. The T/C [7] was 97 % of control.

For CNc1n[n+](-c2ccccc2)no1, the T/C (dose: 37.5 mg/kg/injection, schedule: Q04DX003 (sc), vehicle: water) was 98 % of control and the T/C (dose: 75.0 mg/kg/injection, schedule: Q04DX003 (sc), vehicle: water) was 92 % of control.

In the case of CC1OC1C(=O)C1(O)C(C)C(O)C23OC2(C(O)c2c(O)cccc2C3=O)C1O (stereo not given), the T/C (dose: 6.0 mg/kg/injection, schedule: Q04DX003 (sc), vehicle: Klucel (hydroxypropylcellulose) (HPC)) is reported as 83 % of control, the T/C (dose: 12.0 mg/kg/injection, schedule: Q04DX003 (sc), vehicle: Klucel (hydroxypropylcellulose) (HPC)) is reported as 98 % of control and the T/C (dose: 24.0 mg/kg/injection, schedule: Q04DX003 (sc), vehicle: Klucel (hydroxypropylcellulose) (HPC)) is reported as 110 % of control. For the same molecule, the T/C (dose: 48.0 mg/kg/injection, schedule: Q04DX003 (sc), vehicle: Klucel (hydroxypropylcellulose) (HPC)) was 41 % of control.

Nc1nc(N)c2c(ccc3c2ccn3Cc2cccc([N+](=O)[O-])c2)n1 was tested, and the T/C (dose: 37.5 mg/kg/injection, schedule: Q04DX003 (sc), vehicle: saline with Tween-80) was 100 % of control, the T/C (dose: 75.0 mg/kg/injection, schedule: Q04DX003 (sc), vehicle: saline with Tween-80) was 69 % of control and the T/C [9] was 50 % of control.

For O=NN(CCCl)C(=O)NCCO, the T/C (dose: 3.12 mg/kg/injection, schedule: Q04DX003 (sc), vehicle: water) was 49 % of control and 65 % of control.

For S=C=NCCc1ccccc1, the T/C [10] was 68 % of control.

For Cc1cc(NCCCN(C)C)c2ccc3c(ccc4c(NCCCN(C)C)cc(C)nc43)c2n1, the T/C (dose: 9.38 mg/kg/injection, schedule: Q04DX003 (sc), vehicle: saline with Tween-80) was 86 % of control and the T/C (dose: 18.75 mg/kg/injection, schedule: Q04DX003 (sc), vehicle: saline with Tween-80) was 82 % of control.

In the case of O=Cc1ccc([N+](=O)[O-])s1, the T/C (dose: 25.0 mg/kg/injection, schedule: Q01DX010 (sc), vehicle: saline with Tween-80) is reported as 94 % of control, the T/C (dose: 50.0 mg/kg/injection, schedule: Q01DX010 (sc), vehicle: saline with Tween-80) is reported as 105 % of control and the T/C (dose: 100.0 mg/kg/injection, schedule: Q01DX010 (sc), vehicle: saline with Tween-80) is reported as 81 % of control. The T/C [10] was 30 % of control.

NC(=O)c1csc(C2OC(CO)C(O)C2O)n1 (stereo not given) was tested, and the T/C (dose: 200.0 mg/kg/injection, schedule: Q04DX003 (sc), vehicle: water) was 77 % of control, the T/C (dose: 400.0 mg/kg/injection, schedule: Q04DX003 (sc), vehicle: water) was 64 % of control and the T/C (dose: 800.0 mg/kg/injection, schedule: Q04DX003 (sc), vehicle: water) was 99 % of control. The T/C (dose: 1600.0 mg/kg/injection, schedule: Q04DX003 (sc), vehicle: water) was 97 % of control.

For CC(=O)O[C@@H]1CO[C@H]2O[C@H]3[C@@H](C(C=O)=C[C@H](O)[C@@H]4C5=C(C(C)C)CC[C@]5(C)CC[C@@]34C)[C@@]2(O)C1=O, the T/C [8] was 94 % of control and the T/C (dose: 400.0 mg/kg/injection, schedule: Q04DX003 (sc), vehicle: Klucel (hydroxypropylcellulose) (HPC)) was 54 % of control.
